Results on one compound are retold here after PMC12549914 (Nature Communications, 2025).

One may read the Km as the concentration of substrate that gives half-maximal velocity.

Experiment [1] has as its target T1, LYC1 (Yarrowia lipolytica, UniProt P41929).
T1 sequence (P41929 1-392): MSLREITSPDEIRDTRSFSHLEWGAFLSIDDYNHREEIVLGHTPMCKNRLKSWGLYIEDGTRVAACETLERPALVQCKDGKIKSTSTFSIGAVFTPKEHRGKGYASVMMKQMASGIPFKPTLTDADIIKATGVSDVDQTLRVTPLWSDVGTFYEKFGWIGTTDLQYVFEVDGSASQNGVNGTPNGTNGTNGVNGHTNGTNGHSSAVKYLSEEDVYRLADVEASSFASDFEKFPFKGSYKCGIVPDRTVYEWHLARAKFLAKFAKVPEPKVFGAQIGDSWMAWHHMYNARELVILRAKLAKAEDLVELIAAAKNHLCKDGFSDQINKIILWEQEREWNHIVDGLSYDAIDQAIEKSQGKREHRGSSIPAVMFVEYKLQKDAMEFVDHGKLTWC
Briefly: LC-MS of dansylated product. It is filed as biochemical. To be noted: with acetyl-CoA.

The subject of experiment [2] is RDW23166.1. Particulars: acetyl-CoA co-substrate presumed; conditions in supplement.

`NCCCC[C@H](N)C(=O)O` [lysine]: the “LC-MS of dansylated product” value in experiment [1] is reported as “confirming that LYC1 catalyzes lysine acetylation specifically with acetyl-CoA as the substrate”. Moreover, the Km in experiment [2] worked out at 6.21 mM.
